Assays:
mouse TGR5 receptor = target: T1, mouse TGR5 receptor (Mus musculus, UniProt Q80SS6); assay: Mouse TGR5 HTRF cAMP production assay (HEK293-EBNA cells, Cisbio cAMP HiRange kit); type: cell-based; conditions: HEK293-EBNA cells overexpressing mouse TGR5, HTRF cAMP assay
T1 construct: host or cells: HEK293-EBNA (293 c18, ATCC CRL10852)
T1 sequence (Q80SS6 1-329): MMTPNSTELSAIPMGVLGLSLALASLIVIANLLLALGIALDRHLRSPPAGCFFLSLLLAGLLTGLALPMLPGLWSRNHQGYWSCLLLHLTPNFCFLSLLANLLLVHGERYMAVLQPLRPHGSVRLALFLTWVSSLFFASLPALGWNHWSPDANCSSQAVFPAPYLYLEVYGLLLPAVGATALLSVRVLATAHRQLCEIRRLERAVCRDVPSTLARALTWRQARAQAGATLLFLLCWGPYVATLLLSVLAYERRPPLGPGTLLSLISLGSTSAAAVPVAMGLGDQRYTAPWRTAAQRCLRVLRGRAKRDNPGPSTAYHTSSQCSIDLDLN
Method in brief: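 HEK293-EBNA cells stably expressing mouse TGR5 (episomal vector) were suspended in serum-free DMEM with 500 μM IBMX and exposed to 12-point half-log compound dilutions for 1 h at room temperature. cAMP was detected by HTRF (d2-cAMP/anti-cAMP cryptate, 1 h, room temperature), giving EC50 from duplicates.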

human TGR5 receptor = target: T2, human TGR5 receptor (Homo sapiens, UniProt Q8TDU6); assay: Human TGR5 cAMP production assay (hTGR5-CHO cells, DiscoveRx cAMP XS+ kit); type: cell-based; conditions: luminescent cAMP assay, read-out: Human TGR5 Lum. cAMP Activity (EC50)
T2 construct: host or cells: CHO-K1 (hTGR5-CHO)
T2 sequence (Q8TDU6 1-330): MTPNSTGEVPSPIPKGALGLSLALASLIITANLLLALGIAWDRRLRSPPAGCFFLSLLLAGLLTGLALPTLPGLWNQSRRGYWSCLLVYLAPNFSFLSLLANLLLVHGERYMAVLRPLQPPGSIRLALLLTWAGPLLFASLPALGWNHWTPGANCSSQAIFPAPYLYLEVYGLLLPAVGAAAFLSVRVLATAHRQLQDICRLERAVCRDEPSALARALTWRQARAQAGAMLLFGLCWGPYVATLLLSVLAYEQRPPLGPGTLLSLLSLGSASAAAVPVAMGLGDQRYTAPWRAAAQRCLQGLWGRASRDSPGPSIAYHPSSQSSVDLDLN
Method in brief: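 CHO-K1 cells stably expressing hTGR5, in PBS with IBMX and cAMP antibody, treated with half-log compound dilutions for 1 h at room temperature. cAMP measured by enzyme-fragment complementation luminescence after overnight detection; EC50 values reported.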

Row | EC50 (mouse TGR5 receptor) [nM] | EC50 (human TGR5 receptor) [nM] | Compound
1 | < 100 | 100 to 999 | N#Cc1ccc(CCNC(=O)[C@@H]2CCCN2c2cc(N3CCC(CCCNC(=O)NCC(=O)O)CC3)nc(C(F)(F)F)n2)cc1 [Compound 121, (S)-2-(3-(3-(1-(6-(2-((4-cyanophenethyl)carbamoyl)pyrrolidin-1-yl)-2-(trifluoromethyl)pyrimidin-4-yl)piperidin-4-yl)propyl)ureido)acetic acid]
2 | < 100 | < 100 | N#Cc1ccc(CCNC(=O)[C@@H]2CCN2c2cc(N3CCC(CCNC(=O)NCCOCCNC(=N)N)CC3)nc(C(F)(F)F)n2)cc1 [Compound 287, (S)-1-(6-(4-(1-amino-1-imino-9-oxo-5-oxa-2,8,10-triazadodecan-12-yl)piperidin-1-yl)-2-(trifluoromethyl)pyrimidin-4-yl)-N-(4-cyanophenethyl)azetidine-2-carboxamid]

Reference: patent US10654834B2 (Venenum Biodesign, LLC, priority 2016, dated 2020)
